Results from PMC4794675, “Generation and Characterization of Monoclonal Antibodies against a Cyclic Variant of Hepatitis C Virus E2 Epitope 412-422” (Journal of Virology, 2016).
Bridge positions count the residues as written; N and C are the ends. Peptide text beside a SMILES is read from it.

Test system: Fab C2
Experiment: SPR epitope mapping: binding of epitope I peptide variants to immobilized Fab C2
Parameters: species or system mouse; Ka, binding to Fab C2: unit not given here
Details: for Ka, binding to Fab C2 / Kd, binding to Fab C2: Fab C2 immobilized on CM5 chip, 25°C; for Kd: read-out: KD, binding to Fab C2, Fab C2 immobilized on CM5 chip, peptides 125 nM to 5 μM, HBS buffer, 25°C, NB = no binding
Method: All SPR analyses were performed on a Biacore 3000 instrument from GE Healthcare, using CM5 sensor chips and the HBS buffer certified for use with this instrument (20 mM HEPES, 0.15 M NaCl, pH 7.2, 0.005% polysorbate 20), at 25°C. Immobilization was carried out by means of the canonical amine-coupling chemistry using the surface immobilization wizard procedure operating at 5 μl/min. Channels were activated with a mixture of 1-ethyl-3-(3-dimethylaminopropyl)-carbodiimide and N-hydroxysuccinimide for 7 min; then, the ligand, which had been appropriately diluted in the preselected sodium acetate buffer, was coupled until a typical level of 500 to 600 response units (RU) was achieved. The remaining active ester groups were blocked with 1 M ethanolamine HCl, pH 8.5. […] The same procedure was applied to prepare an sE2-functionalized sensor chip. An IgG1 isotype-matched antibody was used as a negative control at a concentration of 5.0 μM. […] An underivatized surface was prepared on every sensor chip and used as a blank control. All analyses were carried out at a flow rate of 20 μl/min, and a constant volume of 60 μl of protein or peptide solution appropriately diluted in the HBS running buffer was injected.
For every analysis, experimental sensorgrams were aligned, the blank signal was subtracted, and the sensorgrams were overlapped. All mathematical manipulations and fitting of the data were performed using BIAevaluation (version 4.1) software (GE Healthcare).
To further investigate which peptide residues were mostly involved in the binding with the antibodies, we designed and prepared a panel of alanine-mutated cyclic peptides (Table 4). […] All peptides were tested at concentrations ranging from 125 nM to 5 μM.

Row | Compound | Ka, binding to Fab C2 (peptides 125 nM to 5 μM) | Kd, binding to Fab C2 (peptides 125 nM to 5 μM) [M⁻¹ s⁻¹] | affinity/binding to Fab C2 relative to wild type (Fab C2 immobilized, peptides 125 nM to 5 μM) | Kd [µM]
1 | CC[C@H](C)[C@@H]1NC(=O)[C@H](Cc2c[nH]cn2)NC(=O)[C@H](Cc2c[nH]c3ccccc23)NC(=O)[C@H](CCC(=O)O)NC(=O)[C@H](CCC(=O)O)NC(=O)[C@H](CC(N)=O)NC(=O)[C@H]([C@@H](C)O)NC(=O)[C@H](CC(N)=O)NC(=O)[C@H]([C@@H](C)CC)NC(=O)[C@H](CC(C)C)NC(=O)[C@H](CCC(N)=O)NC(=O)[C@@H](NC(=O)[C@H](CCCCN)NC(=O)[C@H](CCCCN)NC(C)=O)CSSC[C@@H](C(N)=O)NC1=O [C-epitope I mutant III] (Ac-KKCQLINTNEEWHIC-NH2; disulfide 3-15; N-terminus and C-terminus assumed) | 16200 s⁻¹ | 0.0754 |  | 
2 | CC[C@H](C)[C@@H]1NC(=O)[C@H](CC(C)C)NC(=O)[C@H](CCC(N)=O)NC(=O)[C@@H](NC(=O)[C@H](CCCCN)NC(=O)[C@H](CCCCN)NC(C)=O)CSSC[C@@H](C(N)=O)NC(=O)[C@H]([C@@H](C)CC)NC(=O)[C@H](Cc2c[nH]cn2)NC(=O)[C@H](Cc2c[nH]c3ccccc23)NC(=O)[C@H](CO)NC(=O)CNC(=O)[C@H](C)NC(=O)[C@H](C)NC(=O)[C@H](C)NC1=O [C-epitope I mutant II] (Ac-KKCQLIAAAGSWHIC-NH2; disulfide 3-15; N-terminus and C-terminus assumed) | 3200 s⁻¹ | 4.73e-05 |  | 
3 | CC[C@H](C)[C@@H]1NC(=O)[C@H](CC(C)C)NC(=O)[C@H](CCC(N)=O)NC(=O)[C@@H](NC(=O)[C@H](CCCCN)NC(=O)[C@H](CCCCN)NC(C)=O)CSSC[C@@H](C(N)=O)NC(=O)[C@H](C)NC(=O)[C@H](C)NC(=O)[C@H](C)NC(=O)[C@H](CO)NC(=O)CNC(=O)[C@H](CC(N)=O)NC(=O)[C@H]([C@@H](C)O)NC(=O)[C@H](CC(N)=O)NC1=O [C-epitope I mutant IV] (Ac-KKCQLINTNGSAAAC-NH2; disulfide 3-15; N-terminus and C-terminus assumed) | 0 | 0 | abolished | > 5
4 | CC[C@H](C)[C@@H]1NC(=O)[C@H](Cc2c[nH]cn2)NC(=O)[C@H](Cc2c[nH]c3ccccc23)NC(=O)[C@H](CO)NC(=O)CNC(=O)[C@H](CC(N)=O)NC(=O)[C@H]([C@@H](C)O)NC(=O)[C@H](CC(N)=O)NC(=O)[C@H](C)NC(=O)[C@H](C)NC(=O)[C@H](C)NC(=O)[C@@H](NC(=O)[C@H](CCCCN)NC(=O)[C@H](CCCCN)NC(C)=O)CSSC[C@@H](C(N)=O)NC1=O [C-epitope I mutant I] (Ac-KKCAAANTNGSWHIC-NH2; disulfide 3-15; N-terminus and C-terminus assumed) | 1.22e+06 s⁻¹ | 0.553 |  | 
5 | CC[C@H](C)[C@H](NC(=O)[C@H](Cc1c[nH]cn1)NC(=O)[C@H](Cc1c[nH]c2ccccc12)NC(=O)[C@H](CO)NC(=O)CNC(=O)[C@H](CC(N)=O)NC(=O)[C@@H](NC(=O)[C@H](CC(N)=O)NC(=O)[C@@H](NC(=O)[C@H](CC(C)C)NC(=O)[C@H](CCC(N)=O)NC(=O)[C@H](CSC)NC(=O)[C@H](CCCCN)NC(=O)[C@H](CCCCN)NC(C)=O)[C@@H](C)CC)[C@@H](C)O)C(=O)N[C@@H](CSC)C(N)=O [L-epitope I] (Ac-KKC(Me)QLINTNGSWHIC(Me)-NH2; N-terminus and C-terminus assumed) | 0 | 0 |  | > 5
